Experimental data taken from patent publication US9725459B2, “3-oxo-tetrahydro-furo[3,2-B]pyrrol-4(5H)-yl) derivatives I” (GRÜNENTHAL GMBH, priority 2014, dated 2017).
Like-named read-outs stand apart in the source and are kept apart here.

How the values were obtained:
Assay type in all cases: biochemical
human cathepsin S (CatS) = human cathepsin S (CatS) (Homo sapiens (Human), UniProt P25774); test: CatS functional enzyme assay; conditions: for Selectivity Ki(hCatS)/Ki(hCatK): ratio Ki(hCatS)/Ki(hCatK); for Ki: read-out: hCatS, Ki
Method in brief: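 Recombinant human enzymes were incubated 10 min at RT with AMC substrate: CatS 0.0007 mU/well with Z-VVR-AMC 5 µM; CatK 0.00175 mU/well with Z-FR-AMC 40 µM; CatL 0.000874 mU/well with Z-VVR-AMC 40 µM. Fluorescence gave IC50, converted to Ki by Cheng-Prusoff.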

human cathepsin K (CatK) = human cathepsin K (CatK) (Homo sapiens (Human), UniProt P43235); test: CatK functional enzyme assay; conditions: recombinant human CatK, substrate Z-FR-AMC 40 μM, pH 5.5; Ki by Cheng Prusoff equation; read-out: hCatK, Ki
Method in brief: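 Recombinant human enzymes in 50 mM NaOAc, 10 mM EDTA, 1 mM DTT, 0.01% Triton X-100, pH 5.5, 10 min at RT. CatK: 0.00175 mU/well with 40 μM Z-FR-AMC; CatL: 0.000874 mU/well with 40 μM Z-VVR-AMC. AMC fluorescence read; IC50 converted to Ki via Cheng–Prusoff.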

human cathepsin L (CatL) = human cathepsin L (CatL) (Homo sapiens (Human), UniProt P07711); test: CatL functional enzyme assay; conditions: read-out: hCatL, inhibition [%] at 31.6 μM
[1] = recombinant human CatS, substrate Z-VVR-AMC 5 μM, pH 6.5, Ki by Cheng Prusoff equation

Chain of human cathepsin L (CatL) (P07711 114-333): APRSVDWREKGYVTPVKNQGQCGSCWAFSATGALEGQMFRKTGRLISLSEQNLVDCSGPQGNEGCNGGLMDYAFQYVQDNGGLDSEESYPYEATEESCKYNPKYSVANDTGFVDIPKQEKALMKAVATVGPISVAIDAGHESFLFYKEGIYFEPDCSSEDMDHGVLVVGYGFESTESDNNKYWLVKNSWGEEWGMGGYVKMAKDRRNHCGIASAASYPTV
Chain of human cathepsin S (CatS) (P25774 115-331): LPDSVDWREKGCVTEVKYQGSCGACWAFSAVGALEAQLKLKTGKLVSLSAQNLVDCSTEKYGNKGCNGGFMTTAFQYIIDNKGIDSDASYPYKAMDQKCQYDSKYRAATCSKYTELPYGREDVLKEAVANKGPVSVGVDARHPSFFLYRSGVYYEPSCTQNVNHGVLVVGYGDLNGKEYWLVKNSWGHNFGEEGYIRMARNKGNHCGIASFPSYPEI
Chain of human cathepsin K (CatK) (P43235 115-329): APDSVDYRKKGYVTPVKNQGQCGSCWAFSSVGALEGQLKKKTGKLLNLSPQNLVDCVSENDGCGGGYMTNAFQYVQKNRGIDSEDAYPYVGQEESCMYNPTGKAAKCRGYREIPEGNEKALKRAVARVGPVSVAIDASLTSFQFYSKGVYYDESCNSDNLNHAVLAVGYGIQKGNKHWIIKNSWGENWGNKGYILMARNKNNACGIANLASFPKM

SMILES | Selectivity Ki(hCatS)/Ki(hCatK) (human cathepsin S (CatS)) | Ki (human cathepsin S (CatS); [1]) | Ki (human cathepsin K (CatK)) | inhibition at 31.6 µM (human cathepsin L (CatL)) | inhibition at 10 µM (human cathepsin S (CatS); read-out: hCatS, inhibition [%] at 10 μM) | Ki (human cathepsin S (CatS))
Cc1cc(-c2ccc(C(=O)N[C@H](C(=O)N3C[C@H](Cl)[C@H]4OCC(=O)[C@H]43)C3CCCCC3)s2)ccn1 [Example 33, N-((S)-2-((3aS,6S,6aS)-6-chloro-3-oxotetrahydro-2H-furo[3,2-b]pyrrol-4(5H)-yl)-1-cyclohexyl-2-oxoethyl)-5-(2-methylpyridin-4-yl)thiophene-2-carboxamide] | 21.5 | 86 nM | 4 nM | 12% |  | 
O=C(N[C@H](C(=O)N1C[C@H](Cl)[C@H]2OCC(=O)[C@H]21)C1CCCCC1)c1ccc(-c2ccncc2F)s1 [Example 31, N-((S)-2-((3aS,6S,6aS)-6-chloro-3-oxotetrahydro-2H-furo[3,2-b]pyrrol-4(5H)-yl)-1-cyclohexyl-2-oxoethyl)-5-(3-fluoropyridin-4-yl)thiophene-2-carboxamide] | 88.0 | 440 nM | 5 nM | 14% |  | 
O=C(N[C@H](C(=O)N1C[C@H](Cl)[C@H]2OCC(=O)[C@H]21)C1CCCCC1)c1ncc(-c2cnccn2)s1 [Example 48, N-((S)-2-((3aS,6S,6aS)-6-chloro-3-oxotetrahydro-2H-furo[3,2-b]pyrrol-4(5H)-yl)-1-cyclohexyl-2-oxoethyl)-5-(pyrazin-2-yl)thiazole-2-carboxamide] | 17.3 | 242 nM | 14 nM | 7% |  | 
C[S+]([O-])c1cnnc(-c2ccc(C(=O)N[C@H](C(=O)N3C[C@H](Cl)[C@H]4OCC(=O)[C@H]43)C3CCCCC3)s2)c1 (stereo partly drawn) [Example 76, N-((S)-2-((3aS,6S,6aS)-6-chloro-3-oxotetrahydro-2H-furo[3,2-b]pyrrol-4(5H)-yl)-1-cyclohexyl-2-oxoethyl)-5-(5-(methylsulfinyl)pyridazin-3-yl)thiophene-2-carboxamide] | 1.0 | 29 nM | 30 nM | 19% |  | 
O=C(N[C@H](C(=O)N1C[C@H](Cl)[C@H]2OCC(=O)[C@H]21)C1CCCCC1)c1sc(-c2cccnn2)cc1F [Example 59, N-((S)-2-((3aS,6S,6aS)-6-chloro-3-oxotetrahydro-2H-furo[3,2-b]pyrrol-4(5H)-yl)-1-cyclohexyl-2-oxoethyl)-3-fluoro-5-(pyridazin-3-yl)thiophene-2-carboxamide] | 6.2 | 726 nM | 118 nM | 0% |  | 
Cc1nc(-c2cnccn2)sc1C(=O)N[C@H](C(=O)N1C[C@H](Cl)[C@H]2OCC(=O)[C@H]21)C1CCCCC1 [Example 22, N-((S)-2-((3aS,6S,6aS)-6-chloro-3-oxotetrahydro-2H-furo[3,2-b]pyrrol-4(5H)-yl)-1-cyclohexyl-2-oxoethyl)-4-methyl-2-(pyrazin-2-yl)thiazole-5-carboxamide] |  |  | 37 nM | 17% | 73% | 
O=C(N[C@H](C(=O)N1C[C@H](Cl)[C@H]2OCC(=O)[C@H]21)C1CCCCC1)c1ccc(-c2ccncc2)s1 [Example 3, N-((S)-2-((3aS,6S,6aS)-6-chloro-3-oxotetrahydro-2H-furo[3,2-b]pyrrol-4(5H)-yl)-1-cyclohexyl-2-oxoethyl)-5-(pyridin-4-yl)thiophene-2-carboxamide] | 34.3 |  | 3 nM | 5% |  | 103 nM
COc1cc(-c2ccc(C(=O)N[C@H](C(=O)N3C[C@H](Cl)[C@H]4OCC(=O)[C@H]43)C3CCCCC3)s2)cnn1 [Example 71, N-((S)-2-((3aS,6S,6aS)-6-chloro-3-oxotetrahydro-2H-furo[3,2-b]pyrrol-4(5H)-yl)-1-cyclohexyl-2-oxoethyl)-5-(6-methoxypyridazin-4-yl)thiophene-2-carboxamide] | 3.0 | 23 nM | 8 nM | 32% |  | 
